According to patent EP2794556B1, “BIS-(ARYL/HETEROARYL)-METHYLENE COMPOUNDS, PHARMACEUTICAL COMPOSITIONS CONTAINING SAME AND THEIR USE FOR TREATING CANCER” (Gleason, James L., priority 2011, dated 2013):

Columns and labels:
VDR = molecular target: T1, VDR (Homo sapiens, UniProt P11473); test: VDR agonism by induction of CYP24 gene expression (RT/PCR); type: cell-based
T1 construct: endogenous in cells; host or cells: SCC25 human head and neck squamous carcinoma cells
T1 sequence (P11473 1-427): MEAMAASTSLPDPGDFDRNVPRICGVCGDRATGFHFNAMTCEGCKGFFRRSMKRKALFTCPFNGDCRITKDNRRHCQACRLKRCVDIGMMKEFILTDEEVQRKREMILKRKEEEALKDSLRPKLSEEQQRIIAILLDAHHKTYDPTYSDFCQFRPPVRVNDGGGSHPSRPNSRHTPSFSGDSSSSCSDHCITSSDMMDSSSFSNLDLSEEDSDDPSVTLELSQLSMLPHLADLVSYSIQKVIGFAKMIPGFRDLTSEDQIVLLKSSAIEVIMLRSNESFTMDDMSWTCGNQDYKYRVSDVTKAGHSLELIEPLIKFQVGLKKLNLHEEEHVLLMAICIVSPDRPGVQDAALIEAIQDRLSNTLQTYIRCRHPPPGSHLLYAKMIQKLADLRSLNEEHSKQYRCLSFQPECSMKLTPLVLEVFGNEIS
Experimental: Cell culture. Human head and neck squamous carcinoma cell lines SCC4 and SCC45 and mouse HNSCC line AT84 were purchased from American Type Culture Collection (Manassas, VA) and cultured under recommended conditions. Cells were split at 60-70% confluence, as follows: cells were washed with filtered PBS, split with a 5-10 min incubation with 1 ml Trypsin-EDTA (Invitrogen, Carlsbad, CA) in PBS, collected with medium. Following centrifugation, the supernatant was removed. Cell pellets were resuspended with DMEM-F12, and distributed on fresh media-containing dishes. For treatments, AT84 cells were split and 24h later medium was changed to DMEM + 10% charcoal-stripped FBS.
RNA isolation and RT/PCR analysis. […]. Proc. Nat. Acad. Sci. U.S.A. 105, 8250-55. and Lamblin, M.et al Bioorganic & Medicinal Chemistry (2010) 18:4119-4137. After treatment, cells were washed with PBS, homogenized with 1ml TRIzol Reagent (Invitrogen, Carlsbad, CA), kept at room temperature for 2-5 min, collected and kept at -80 °C for at least 1h. After, thawing 0.2 ml chloroform was added. After vigorous mixing and storing for 10min, mixtures were centrifuged (10,000rpm, 15 min, 4 °C) and the upper transparent layer was transferred to a new tube. 0.5 ml isopropanol was added and the new solution was mixed. After centrifuging at 4 °C, the supernatant was discarded and 1ml of 75% ethanol was added. After centrifuging and discarding the supernatant, the pellet was air-dried for 5-10 min, and then dissolved in ddH2O. RNA concentrations were measured using a spectrophotometer, and 1-3µg of RNA were loaded for reverse transcriptase reactions (total volume: 20 µl). 80µl of ddH2O was added to the RT-product, and 1.5µl of that was used as template for the PCR reaction. Reverse transcriptase (Super Script II) was purchased from Invitrogen (Carlsbad, CA). DNA polymerase and dNTP's were ordered from Fermentas (Glen Burnie, MD).
Test compounds (10 µM) were first screened for VDR agonism by analysis of induction of CYP24 gene expression in 1,25D-sensitive human SCC25 cells. […]. Consistent with binding to the VDR, induction of CYP24 by compound JF-B01, compound JF-B53 or compound 16 (JF-B54) was blocked (Fig. 1c). […]

[1] = system: total intracellular HDAC activity in SCC25 cells; test: HDACi activity with fluorogenic substrate in live cells; type: cell-based, human; conditions: increasing concentration, Fig. 2a, b
Excerpt: (§1) This assay measures the inhibition of total intracellular HDAC activity and determines the capacity of compounds to inhibit HDACs in the form of their naturally occurring complexes.

[2] = system: total intracellular HDAC activity in SCC4 cells; test: as above; type: cell-based, human; conditions: increasing concentration, Fig. 2a, b
Excerpt: as §1

SCC25 cells = test: EdU cell growth assay; conditions: higher concentrations
Experimental: (§2) EdU cell growth assay. Click-iT EdU Alexa Fluor high-throughput imaging (HCS) assay for cell proliferation. HCS assays were performed on AT84 mouse squamous carcinoma cell line (ATCC) following the manufacturer's instruction (Molecular Probes, Invitrogen). […] All samples were in triplicate.

SCC4 cells = test: EdU cell growth assay
Experimental: as §2

HDAC3 = HDAC3 (Homo sapiens, UniProt O15379); test: Fluorogenic HDAC inhibition assay, purified enzyme
Experimental: (§3) Fluorogenic HDAC inhibition assay. Boc-Lys(Ac)-7-amino-4-methylcoumarin (Boc-Lys(Ac)-AMC) was used as substrate for the HDAC assays. […] Trypsin was used to stop the reaction, releasing free AMC. The trypsin solution was prepared as follow: trypsin was dissolved in HDAC buffer to give a concentration of 10 mg/mL. Release of AMC was monitored by measuring the fluorescence at 460 nm (lex = 390 nm) with a microplate reader (SpectraMax Gemini) at 37 °C. The AMC signals were recorded against a blank with buffer, substrate and trypsin but without the enzyme. All experiments were carried out at least in triplicate.
(§4) For standard HDAC assays, 50 µL of HDAC buffer was mixed with 10 µL of diluted enzyme solution in HDAC buffer at room temperature. The HDAC reaction was started by adding 40 µL of substrate solution in HDAC buffer followed by 30 min of incubation with stirring at 37 °C. The reaction was stopped by adding 100 µL of trypsin solution. After a 10 min incubation with stirring at 37 °C, the release of AMC was monitored by measuring the fluorescence. For HDAC inhibition assays, inhibitor diluted in 50 µL of HDAC buffer was mixed with 10 µL of diluted enzyme solution in HDAC buffer at room temperature. The HDAC reaction was started by adding 40 µL of substrate solution in HDAC buffer followed by 30 min of incubation with stirring at 37 °C. The reaction was stopped by adding 100 µL of trypsin solution. After a 10 min incubation with stirring at 37 °C, the release of AMC was monitored by measuring the fluorescence.

HDAC6 = molecular target: T2, HDAC6 (Homo sapiens, UniProt Q9UBN7); test: Fluorogenic HDAC inhibition assay, purified enzyme
T2 sequence (Q9UBN7 1-1215): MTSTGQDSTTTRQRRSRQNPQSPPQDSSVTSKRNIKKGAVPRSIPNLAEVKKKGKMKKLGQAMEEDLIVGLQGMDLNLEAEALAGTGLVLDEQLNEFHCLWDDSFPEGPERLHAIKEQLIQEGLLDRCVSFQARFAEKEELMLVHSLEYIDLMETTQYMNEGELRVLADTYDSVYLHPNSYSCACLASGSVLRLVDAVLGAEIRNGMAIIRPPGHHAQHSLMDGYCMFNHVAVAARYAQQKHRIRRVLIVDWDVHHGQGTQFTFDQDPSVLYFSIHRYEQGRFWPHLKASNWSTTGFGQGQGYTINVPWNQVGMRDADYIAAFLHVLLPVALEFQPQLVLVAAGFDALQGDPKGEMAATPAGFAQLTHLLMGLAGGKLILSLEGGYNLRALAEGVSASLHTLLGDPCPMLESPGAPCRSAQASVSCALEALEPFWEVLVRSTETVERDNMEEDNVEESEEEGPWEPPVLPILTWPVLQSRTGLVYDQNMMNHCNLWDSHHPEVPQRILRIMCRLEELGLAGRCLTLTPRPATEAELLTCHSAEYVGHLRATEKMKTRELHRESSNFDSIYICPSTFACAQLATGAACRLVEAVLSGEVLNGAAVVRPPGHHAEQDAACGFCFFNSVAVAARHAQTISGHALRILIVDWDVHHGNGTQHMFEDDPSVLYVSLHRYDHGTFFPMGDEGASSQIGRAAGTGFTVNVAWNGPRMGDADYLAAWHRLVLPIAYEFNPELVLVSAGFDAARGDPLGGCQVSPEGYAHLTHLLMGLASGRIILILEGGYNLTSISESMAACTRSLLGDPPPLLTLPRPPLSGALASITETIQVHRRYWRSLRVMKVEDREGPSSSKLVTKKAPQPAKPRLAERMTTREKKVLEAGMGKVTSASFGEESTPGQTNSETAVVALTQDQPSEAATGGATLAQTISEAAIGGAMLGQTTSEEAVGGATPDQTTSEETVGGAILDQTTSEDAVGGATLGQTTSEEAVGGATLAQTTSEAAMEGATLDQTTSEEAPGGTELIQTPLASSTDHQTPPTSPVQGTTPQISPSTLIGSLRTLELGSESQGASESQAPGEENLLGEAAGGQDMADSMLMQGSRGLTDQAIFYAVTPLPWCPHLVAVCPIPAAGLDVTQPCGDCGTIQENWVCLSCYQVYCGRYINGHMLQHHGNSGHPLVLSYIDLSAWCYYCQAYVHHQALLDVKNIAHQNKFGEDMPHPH
Experimental: as §3, §4

HDAC3, sequence (O15379 whole entry, species assumed): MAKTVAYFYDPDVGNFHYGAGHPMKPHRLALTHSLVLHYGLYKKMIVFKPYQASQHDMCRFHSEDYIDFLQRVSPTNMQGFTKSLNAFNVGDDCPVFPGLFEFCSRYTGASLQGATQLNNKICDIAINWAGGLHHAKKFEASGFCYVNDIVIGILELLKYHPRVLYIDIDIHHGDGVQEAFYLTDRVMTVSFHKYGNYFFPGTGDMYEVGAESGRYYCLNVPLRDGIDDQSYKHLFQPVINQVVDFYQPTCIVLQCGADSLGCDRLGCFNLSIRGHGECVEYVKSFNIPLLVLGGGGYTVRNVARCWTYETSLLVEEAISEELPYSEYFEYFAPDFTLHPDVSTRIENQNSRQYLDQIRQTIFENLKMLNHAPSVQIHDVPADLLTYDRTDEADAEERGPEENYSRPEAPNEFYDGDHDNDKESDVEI
HDAC3, sequence (Q9Y618 395-489 partner limits assumed, species assumed): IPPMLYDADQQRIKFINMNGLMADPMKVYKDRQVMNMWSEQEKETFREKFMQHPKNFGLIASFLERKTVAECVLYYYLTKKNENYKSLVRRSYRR

CCC(O)(CC)COc1ccc(C(CC)(CC)c2ccc(OCC(=O)NO)c(C)c2)cc1C [JF-B54, 2-(4-(3-(4-(2-Ethyl-2-hydroxybutoxy)-3-methylphenyl)pentan-3-yl)-2-methylphenoxy)-N-hydroxyacetamide]
induction of CYP24 by the compound was blocked (VDR; Fig. 1c, blocking agent not given): blocked | VDR agonist activity and potency, induction of CYP24 gene expression (VDR; SCC25 cells, Fig. 1b, 1d): VDR agonist activity, but with reduced potency | HDACi activity, substrate deacetylation [1]: most potent | HDACi activity, substrate deacetylation [2]: most potent | EdU incorporation at higher concentrations (SCC25 cells): completely abolished EdU incorporation | inhibition of proliferation, EdU incorporation (SCC4 cells; 1,25D-resistant SCC4 cells, Fig. 2e, f): completely | EdU incorporation at higher concentrations (SCC4 cells; SCC4 cells, higher concentrations): completely abolished EdU incorporation | IC50 (HDAC3): 29.9 µM | IC50 (HDAC6): 31.5 µM
